These results are taken from US8546102B2, “Methods for determining sodium-proton-exchanger ligand efficiency” (Sanofi, priority 2008, dated 2013).

Each structure is given as a SMILES string. Several values for one entry are separate records, joined by “and”; a condition that tells them apart may be missing. Identical values can stand only once. Like-named read-outs stand apart in the source and are kept apart here.

Data set [1] has as its target T1, hNHE1 (Homo sapiens, UniProt P19634).
T1 construct: expressed in transfected cells
As to the kind of experiment: Calibration curve of NHE1 activity, compound dilution series in rat plasma. In kind it is cell-based. How it is done:
For the cell-based determination of NHE1 ligand efficiency, LAP1 (mouse LTK-cell line) cells stably expressing hNHE1 (see Example 1) were seeded at a density of 25.000 cells/well/100 μl medium (Iscove-medium, 10% FCS, 2 mM L-glutamine, 100 μ/ml penicilline/streptomycine, 50 μg/ml gentamicine, 400 μg/ml G418) on black, clear bottom 96-well microplates (Costar®, Corning Inc., Corning, N.Y.). Cells were incubated overnight at 37° C., 5% CO2 and 90% humidity. The medium was discarded prior to measurement and 100 μl/well dye buffer (20 mM HEPES, pH 7.4 adjusted with KOH, 20 mM NH4Cl, 115 mM choline chloride, 1 mM MgCl2, 1 mM CaCl2, 5 mM KCl, 5 mM glucose, 5 μM BCECF) were added. After incubation for 20 min at 37° C. the cells were washed 3-times with Na^+-free washing buffer (5 mM HEPES, pH 7.4 adjusted with KOH, 133.8 mM choline chloride, 4.7 mM KCl, 1.25 mM CaCl2, 1.25 mM MgCl2, 0.97 mM K2HPO4, 0.23 mM KH2PO4, 5 mM glucose), leaving 90 μl of washing buffer per well. The plasma probes were prepared as followed: 10% (v/v) Na^+-buffer (10 mM HEPES, pH 7.4 adjusted with KOH, 133.8 mM NaCl, 4.7 mM KCl, 1.25 mM MgCl2, 1.25 mM CaCl2, 0.97 mM Na2HPO4, 0.23 mM NaH2PO4, 5 mM glucose) were added to 90% (v/v) rat plasma. High controls (plasma solution without antagonist) and low controls (plasma solution with 20 μM cariporide, 10 μM final concentration) were prepared. A dilution series of cariporide and COMPOUND X in 10% (v/v) Na^+-buffer/90% (v/v) rat plasma was used for a calibration curve to calculate the compound concentration in the rat plasma probes FIGS. 1 and 2). The pH-recovery was measured with a FLIPR (Fluorometric Imaging Plate Reader, Molecular Devices, Sunnyvale, Calif.; laser power 0.3 W, aperture 4, measuring interval 2 s, time of measurement 120 s). During measurement 90 μl of plasma solution were added to the wells. For calculation of NHE1 activity, the increase in fluorescence between the 12th and 32nd s was calculated. The high control was set as 100% activity and the low control as 0% NHE1 activity. Activity (%) of the samples was calculated by a comparison of the controls. Compound plasma levels were calculated in relation to the calibration curve. Additionally, calibration curves were used to calculate the compound plasma levels in the probe sets.

For data set [2], the target named is T1, hNHE1. In words: NHE1 plasma assay (pH recovery, BCECF/FLIPR) with plasma of treated rats. The class given is cell-based. How it is done: The animals used for the plasma studied were pretreated as follows: • Animals: Male Sprague Dawley rats (Moellegard) • Body weight: 320-360 g • Anesthesia: Thiopental-Na (Trapanal 100 mg/kg i.p.) • Respiration: 40 Vol % O2 • Blood gases: 32-40 mmHg pCO2 • 80-100 mmHg PO2 • pH 7.35-7.49 • SaO2>96% • Ischemia: 20 min occlusion of LAD (left anterior descending coronary artery) • Reperfusion: 60 min • Body temperature: 36.5° C. • Measurement parameters: myocardial infarct mass mean arterial blood pressure heart rate • compound plasma levels • Blood samples: single probe, 85 min after i.v. injection (end of reperfusion) • or • single probe 200 min after oral treatment (end of reperfusion)
Different amounts of plasma were prepared from groups I to VII 85 mins after injection (groups I-IV, VII) or 200 mins after treatment (groups V-VI) and from untreated rats. Plasma was stored at −20° C. until the analysis was performed.
For the cell-based determination of NHE1 ligand efficiency, LAP1 (mouse LTK-cell line) cells stably expressing hNHE1 (see Example 1) were seeded at a density of 25.000 cells/well/100 μl medium (Iscove-medium, 10% FCS, 2 mM L-glutamine, 100 μ/ml penicilline/streptomycine, 50 μg/ml gentamicine, 400 μg/ml G418) on black, clear bottom 96-well microplates (Costar®, Corning Inc., Corning, N.Y.). Cells were incubated overnight at 37° C., 5% CO2 and 90% humidity. The medium was discarded prior to measurement and 100 μl/well dye buffer (20 mM HEPES, pH 7.4 adjusted with KOH, 20 mM NH4Cl, 115 mM choline chloride, 1 mM MgCl2, 1 mM CaCl2, 5 mM KCl, 5 mM glucose, 5 μM BCECF) were added. After incubation for 20 min at 37° C. the cells were washed 3-times with Na^+-free washing buffer (5 mM HEPES, pH 7.4 adjusted with KOH, 133.8 mM choline chloride, 4.7 mM KCl, 1.25 mM CaCl2, 1.25 mM MgCl2, 0.97 mM K2HPO4, 0.23 mM KH2PO4, 5 mM glucose), leaving 90 μl of washing buffer per well. The plasma probes were prepared as followed: 10% (v/v) Na^+-buffer (10 mM HEPES, pH 7.4 adjusted with KOH, 133.8 mM NaCl, 4.7 mM KCl, 1.25 mM MgCl2, 1.25 mM CaCl2, 0.97 mM Na2HPO4, 0.23 mM NaH2PO4, 5 mM glucose) were added to 90% (v/v) rat plasma.
High controls (plasma solution without antagonist) and low controls (plasma solution with 20 μM cariporide, 10 μM final concentration) were prepared. […]
The pH-recovery was measured with a FLIPR (Fluorometric Imaging Plate Reader, Molecular Devices, Sunnyvale, Calif.; laser power 0.3 W, aperture 4, measuring interval 2 s, time of measurement 120 s). […]
For calculation of NHE1 activity, the increase in fluorescence between the 12th and 32nd s was calculated. […] Activity (%) of the samples was calculated by a comparison of the controls. Compound plasma levels were calculated in relation to the calibration curve.

Another data set has as its target T2, human NHE1 (hNHE1) (Homo sapiens, UniProt P19634).
T2 construct: expressed in transfected cells
As to the kind of experiment: NHE1 plasma assay (pH recovery, BCECF/FLIPR) with rabbit plasma. The class given is cell-based. From the text: (§1) Plasma samples were obtained from male New Zealand rabbits (2.5-3.5 kg) maintained on standard rabbit chow with 0.3% cariporide (NHE inhibitor). A blood sample was taken after 1 week from the auricular artery for the determination of the plasma concentrations of cariporide. Determination of plasma concentration of cariporide was done as described below:
(§2) The NHE-Gene (SLC9A1, Franchi A. et al., Proc Natl Acad Sci USA., 1986 December; 83(24):9388-92.) was cloned into the pMamneo-vector and introduced into LAP1 (mouse LTK-cell line) cells. Stable cell lines were generated from transfected cells.
(§3) LAP1 (mouse LTK-cell line) cells stably expressing human NHE1 (hNHE1) were seeded with a density of 25.000 cells/well/100 μl medium (Iscove-medium, 10% FCS, 2 mM L-glutamine, 100 u/ml penicilline/streptomycine, 50 μg/ml gentamicine, 400 μg/ml G418) on black, clear bottom 96-well microplates (Costar®, Corning Inc., Corning, N.Y.). Cells were incubated overnight at 37° C., 5% CO2 and 90% humidity. The medium was discarded prior to measurement and 100 μl/well dye buffer (20 mM HEPES, pH 7.4 adjusted with KOH, 20 mM NH4Cl, 115 mM choline chloride, 1 mM MgCl2, 1 mM CaCl2, 5 mM KCl, 5 mM glucose, 5 μM BCECF) were added. After incubation for 20 min at 37° C. the cells were washed 3-times with Na^+-free washing buffer (5 mM HEPES, pH 7.4 adjusted with KOH, 133.8 mM choline chloride, 4.7 mM KCl, 1.25 mM CaCl2, 1.25 mM MgCl2, 0.97 mM K2HPO4, 0.23 mM KH2PO4, 5 mM glucose), leaving 90 μl of washing buffer per well. pH-recovery was measured with a FLIPR (Fluorometric Imaging Plate Reader, Molecular Devices, Sunnyvale, Calif.; laser power 0.3 W, aperture 4, measuring interval 2 s, time of measurement 120 s). During measurement 90 μl of plasma solution (90% animal plasma from animals feeded w/o antagonist, 10% Na^+-buffer: 10 mM HEPES, pH 7.4 adjusted with KOH, 133.8 mM NaCl, 4.7 mM KCl, 1.25 mM MgCl2, 1.25 mM CaCl2, 0.97 mM Na2HPO4, 0.23 mM NaH2PO4, 5 mM glucose) were added to the wells. Due to the Na^+ in the buffer NHE1 starts to transport H^+ out of the cells, leading to an increase in intracellular pH and fluorescence. High control: plasma solution without antagonist. Low control: plasma solution with 20 μM cariporide (10 μM final concentration). Cariporide was added to the plasma after preparation. […] For calibration different amounts of cariporide and the tested antagonists were added to plasma after preparation to determine the efficiency in animal plasma.
(§4) For calculation of NHE1 activity, the increase in fluorescence between the 12th and 32nd s was calculated. The high control was set as 100% activity whereas the low control determines 0% NHE1 activity. %-activity of the samples was calculated by a comparison to the controls.

Assay in data set [3]: as above
In kind it is cell-based, human. The settings on record: male, New Zealand, rabbit, plasma, oral, 0.3 % in chow; rabbits on 0.3% cariporide chow, 1 week; inferred from complete NHE1 block.
Excerpt: as §1, §2, §3, §4

Where [4] appears, read: rat plasma, 1 mg/kg i.v., 85 min after injection.

T2 sequence (P19634 whole entry): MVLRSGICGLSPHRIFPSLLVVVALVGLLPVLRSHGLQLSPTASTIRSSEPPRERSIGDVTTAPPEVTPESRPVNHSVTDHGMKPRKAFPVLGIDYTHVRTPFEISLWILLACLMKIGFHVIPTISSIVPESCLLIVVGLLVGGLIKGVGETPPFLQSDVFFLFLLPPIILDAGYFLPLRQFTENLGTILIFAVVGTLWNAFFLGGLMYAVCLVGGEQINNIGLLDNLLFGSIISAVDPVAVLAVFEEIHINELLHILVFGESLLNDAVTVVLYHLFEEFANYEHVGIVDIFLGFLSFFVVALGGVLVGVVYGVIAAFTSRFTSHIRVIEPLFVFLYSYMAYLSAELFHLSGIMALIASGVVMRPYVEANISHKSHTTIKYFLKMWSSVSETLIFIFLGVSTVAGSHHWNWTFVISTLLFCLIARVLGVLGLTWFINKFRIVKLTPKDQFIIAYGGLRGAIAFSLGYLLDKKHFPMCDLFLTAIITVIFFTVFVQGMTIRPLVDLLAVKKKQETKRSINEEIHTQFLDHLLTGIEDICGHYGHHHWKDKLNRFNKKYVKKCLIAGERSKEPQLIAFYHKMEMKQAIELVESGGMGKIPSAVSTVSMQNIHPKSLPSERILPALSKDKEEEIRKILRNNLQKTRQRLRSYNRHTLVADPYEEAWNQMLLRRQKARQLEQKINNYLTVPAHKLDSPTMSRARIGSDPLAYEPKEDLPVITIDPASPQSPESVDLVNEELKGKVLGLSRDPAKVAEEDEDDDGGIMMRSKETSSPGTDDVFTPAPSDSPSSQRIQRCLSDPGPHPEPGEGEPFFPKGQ
T1 sequence (P19634 whole entry): as above

For `CC(C)c1ccc(C(=O)NC(=N)N)cc1S(C)(=O)=O` [cariporide], the EC50 on hNHE1 [1] (calibration curve, dilution series in 90% rat plasma/10% Na+-buffer, LAP1 cells expressing hNHE1, read-out: calculated efficiency in rat plasma (EC50)) was 115 nM. For the same compound, on hNHE1 [1] (rat plasma calibration curve), the “Fit parameter A of the calibration curve” value is given as −7.947, the “Fit parameter B of the calibration curve” value is 86.547 and the “Fit parameter D of the calibration curve” value is recorded as −1.239. For the same compound, at hNHE1 [1] (rat plasma calibration curve, C corresponds to the EC50 (0.662 = 662 nM for compound X), read-out: Fit parameter C of the calibration curve), the EC50 is 189 nM. At hNHE1 [2] (low control: rat plasma solution with 10 μM final cariporide), the “rel. FI increase mean” value is on record as 3110. Further, at hNHE1 [2] (low control: rat plasma with 10 μM final cariporide, set as 0% NHE1 activity), the “Activity [%] mean” value turned out to be 0%. Also, at hNHE1 [2] (setting [4]), the “Activity [%] mean” value turned out to be 49.95% and the “rel. FI increase mean” value is 7392. The “block of NHE1 activity” value on human NHE1 (hNHE1) (10 μM cariporide (final) added to plasma) is reported as “complete block”. Besides, on human NHE1 (hNHE1) (low control: rabbit plasma with 10 μM cariporide, high control 14416), the “Fluorescence increase measured between the 12th and 32nd s, Average” value stood at 631. The “NHE1 Activity [%]” value on human NHE1 (hNHE1) (plasma from individual rabbits on 0.3% cariporide chow, sample after 1 week, relative to high/low controls) is −0.63% and −5.45% (2×) and −1.53% and −0.39% and −2.25%. Besides, the “block of NHE1 by plasma probes” value on human NHE1 (hNHE1) (plasma from rabbits on 0.3% cariporide chow) was “complete block”. Also, in data set [3], the concentration at 1 week was not below 10 µM.
